Experimental data published in US20070049564A1 (Wyeth, priority 2005, published 2007).
≈ marks a conversion by molar mass, not a printed value.

Legend:
Test in all cases: MIC, broth microdilution
[1] = tested on: S. aureus GC 6467; conditions: Staphylococcus aureus
[2] = tested on: E. coli GC 4559; conditions: Escherichia coli
[3] = tested on: E. coli GC 2232; conditions: Escherichia coli
[4] = tested on: E. coli GC 6465; conditions: Escherichia coli
[5] = tested on: S. aureus GC 6466; conditions: Staphylococcus aureus
[6] = tested on: E. coli GC 4560; conditions: Escherichia coli
[7] = tested on: E. coli GC 2203; conditions: Escherichia coli
[8] = tested on: S. aureus GC 1131; conditions: Staphylococcus aureus
[9] = tested on: E. coli GC 2231; conditions: Escherichia coli
[10] = tested on: S. epidermidis GC 4935; conditions: Staphylococcus epidermidis
[11] = tested on: E. coli GC 2234; conditions: Escherichia coli
[12] = tested on: P. aeruginosa GC 2214; conditions: Pseudomonas aeruginosa
[13] = tested on: E. faecalis GC 2267; conditions: Enterococcus faecalis
[14] = tested on: S. pneumoniae* GC 4465; conditions: Streptococcus pneumoniae
[15] = tested on: E. faecalis GC 2242; conditions: Enterococcus faecalis
[16] = tested on: S. aureus GC 4536; conditions: Staphylococcus aureus
[17] = tested on: S. aureus GC 2216; conditions: Staphylococcus aureus
[18] = tested on: E. coli GC 2272; conditions: Escherichia coli
[19] = tested on: S. pneumoniae+ GC 4465; conditions: Streptococcus pneumoniae

Work on `CCCCC(=O)OCOC(=O)N(CC(=O)Nc1cc(N(C)C)c2c(c1O)C(=O)C1=C(O)[C@]3(O)C(=O)C(C(N)=O)=C(O)[C@@H](N(C)C)[C@@H]3C[C@@H]1C2)C(C)(C)C` [Example 61, ({[(2-{[(5aR,6aS,7S,10aS)-9-(aminocarbonyl)-4,7-bis(dimethylamino)-1,8,10a,11-tetrahydroxy-10,12-dioxo-5,5a,6,6a,7,10,10a,12-octahydrotetracen-2-yl]amino}-2-oxoethyl)(tert-butyl)amino]carbonyl}oxy)methyl pentanoate] yielded an MIC ([1]; GC6467, pre-incubation in human serum) of 0.5 µg/mL (≈ 0.672 µM), an MIC ([1]; GC6467, pre-incubation in mouse serum) of 0.5 µg/mL (≈ 0.672 µM) and an MIC ([1]; GC6467, pre-incubation in water) of 1 µg/mL (≈ 1.34 µM). The MIC ([2]; GC4559, pre-incubation in human serum) was 8 µg/mL (≈ 10.8 µM), the MIC ([2]; GC4559, pre-incubation in mouse serum) was 1 µg/mL (≈ 1.34 µM) and the MIC ([2]; GC4559, pre-incubation in water) was 64 µg/mL (≈ 86 µM). The MIC ([3]; GC2232, pre-incubation in human serum) was 4 µg/mL (≈ 5.38 µM), the MIC ([3]; GC2232, pre-incubation in mouse serum) was 0.5 µg/mL (≈ 0.672 µM) and the MIC ([3]; GC2232, pre-incubation in water) was 16 µg/mL (≈ 21.5 µM). For the same compound, the MIC ([4]; GC6465, pre-incubation in human serum) was 32 µg/mL (≈ 43 µM), the MIC ([4]; GC6465, pre-incubation in mouse serum) was 1 µg/mL (≈ 1.34 µM) and the MIC ([4]; GC6465, pre-incubation in water) was > 64 µg/mL. For the same compound, the MIC ([5]; GC6466, pre-incubation in human serum) was 0.5 µg/mL (≈ 0.672 µM), the MIC ([5]; GC6466, pre-incubation in mouse serum) was 0.5 µg/mL (≈ 0.672 µM) and the MIC ([5]; GC6466, pre-incubation in water) was 0.5 µg/mL (≈ 0.672 µM). The MIC ([6]; GC4560, pre-incubation in human serum) was 1 µg/mL (≈ 1.34 µM), the MIC ([6]; GC4560, pre-incubation in mouse serum) was 0.25 µg/mL (≈ 0.336 µM) and the MIC ([6]; GC4560, pre-incubation in water) was 1 µg/mL (≈ 1.34 µM). The MIC ([7]; GC2203, pre-incubation in human serum) was 8 µg/mL (≈ 10.8 µM), the MIC ([7]; GC2203, pre-incubation in mouse serum) was 0.5 µg/mL (≈ 0.672 µM) and the MIC ([7]; GC2203, pre-incubation in water) was 32 µg/mL (≈ 43 µM). The MIC ([8]; GC1131, pre-incubation in human serum) was 0.5 µg/mL (≈ 0.672 µM), the MIC ([8]; GC1131, pre-incubation in mouse serum) was 0.5 µg/mL (≈ 0.672 µM) and the MIC ([8]; GC1131, pre-incubation in water) was 0.5 µg/mL (≈ 0.672 µM). It also gave an MIC ([9]; GC2231, pre-incubation in human serum) of 8 µg/mL (≈ 10.8 µM), an MIC ([9]; GC2231, pre-incubation in mouse serum) of 1 µg/mL (≈ 1.34 µM) and an MIC ([9]; GC2231, pre-incubation in water) of 32 µg/mL (≈ 43 µM). For the same compound, the MIC ([10]; GC4935, pre-incubation in human serum) was 1 µg/mL (≈ 1.34 µM), the MIC ([10]; GC4935, pre-incubation in mouse serum) was 0.5 µg/mL (≈ 0.672 µM) and the MIC ([10]; GC4935, pre-incubation in water) was 1 µg/mL (≈ 1.34 µM). It also gave an MIC ([11]; GC2234, pre-incubation in human serum) of 8 µg/mL (≈ 10.8 µM), an MIC ([11]; GC2234, pre-incubation in mouse serum) of 0.5 µg/mL (≈ 0.672 µM) and an MIC ([11]; GC2234, pre-incubation in water) of 16 µg/mL (≈ 21.5 µM). The MIC ([12]; GC2214, pre-incubation in human serum) was > 64 µg/mL, the MIC ([12]; GC2214, pre-incubation in mouse serum) was 8 µg/mL (≈ 10.8 µM) and the MIC ([12]; GC2214, pre-incubation in water) was > 64 µg/mL. The MIC ([13]; GC2267, pre-incubation in human serum) was 2 µg/mL (≈ 2.69 µM), the MIC ([13]; GC2267, pre-incubation in mouse serum) was 0.5 µg/mL (≈ 0.672 µM) and the MIC ([13]; GC2267, pre-incubation in water) was 2 µg/mL (≈ 2.69 µM). It also gave an MIC ([14]; pre-incubation in human serum) of 0.25 µg/mL (≈ 0.336 µM), an MIC ([14]; pre-incubation in mouse serum) of 0.12 µg/mL (≈ 0.161 µM) and an MIC ([14]; pre-incubation in water) of 0.12 µg/mL (≈ 0.161 µM). The MIC ([15]; GC2242, pre-incubation in human serum) was 2 µg/mL (≈ 2.69 µM), the MIC ([15]; GC2242, pre-incubation in mouse serum) was 0.5 µg/mL (≈ 0.672 µM) and the MIC ([15]; GC2242, pre-incubation in water) was 2 µg/mL (≈ 2.69 µM). The MIC ([16]; GC4536, pre-incubation in human serum) was 0.5 µg/mL (≈ 0.672 µM), the MIC ([16]; GC4536, pre-incubation in mouse serum) was 0.5 µg/mL (≈ 0.672 µM) and the MIC ([16]; GC4536, pre-incubation in water) was 0.5 µg/mL (≈ 0.672 µM). It also gave an MIC ([17]; GC2216, pre-incubation in human serum) of 0.5 µg/mL (≈ 0.672 µM), an MIC ([17]; GC2216, pre-incubation in mouse serum) of 0.5 µg/mL (≈ 0.672 µM) and an MIC ([17]; GC2216, pre-incubation in water) of 1 µg/mL (≈ 1.34 µM). It also gave an MIC ([18]; GC2272, pre-incubation in human serum) of 4 µg/mL (≈ 5.38 µM), an MIC ([18]; GC2272, pre-incubation in mouse serum) of 0.5 µg/mL (≈ 0.672 µM) and an MIC ([18]; GC2272, pre-incubation in water) of 8 µg/mL (≈ 10.8 µM). It also gave an MIC ([19]; pre-incubation in human serum) of 0.5 µg/mL (≈ 0.672 µM), an MIC ([19]; pre-incubation in mouse serum) of 0.5 µg/mL (≈ 0.672 µM) and an MIC ([19]; pre-incubation in water) of 0.5 µg/mL (≈ 0.672 µM).
